Where “and” joins values, the source holds several entries; their conditions need not be identical. Equal values may be shown once. Bridge positions count the residues as written; N and C are the ends. Square brackets hold non-standard residues; d marks the D form. Peptide text beside a SMILES is read from it. * marks the point of attachment. Hydrocinnamoyl = O=C(CCc1ccccc1)*; dCha = N[C@H](CC1CCCCC1)C(=O)O; Orn = NCCC[C@H](N)C(=O)O
What was measured:
in vivo = conditions: male, C57BL/6 J, mouse, iv, 1 mg/kg
[1] = Intestinal environment stability (intestinal washing and intestinal homogenate); conditions: 1 µg/ml, 37 °C, up to 60 min
[2] = Serum stability, incubation at 37 °C; conditions: mouse serum, 1 µg/ml, up to 60 min
[3] = Intravenous pharmacokinetics in mice (plasma, brain, spinal cord; LC-MS/MS, non-compartmental analysis); conditions: for MRT inf: MRT 0-inf_obs
[4] = Plasma stability, incubation at 37 °C; conditions: mouse plasma, 1 µg/ml, up to 60 min
[5] = Gastric environment stability (gastric lavage fluid and gastric homogenate); conditions: 1 µg/ml, 37 °C, up to 60 min
[6] = brain, single i.v. 1 mg/kg, mice
[7] = male, C57BL/6 J, mouse, brain, iv, 1 mg/kg, single i.v. 1 mg/kg, mice
[8] = male, C57BL/6 J, mouse, plasma, iv, 1 mg/kg
[9] = male, C57BL/6 J, mouse, plasma, iv, 1 mg/kg, single i.v. 1 mg/kg, mice
[10] = male, C57BL/6 J, mouse, spinal cord, iv, 1 mg/kg, single i.v. 1 mg/kg, mice
[11] = spinal cord, single i.v. 1 mg/kg, mice

`CC(=O)N[C@@H](Cc1ccccc1)C(=O)N[C@H]1CCCNC(=O)[C@H](CCCNC(=N)N)NC(=O)[C@H](Cc2c[nH]c3ccccc23)NC(=O)[C@@H](CC2CCCCC2)NC(=O)[C@@H]2CCCN2C1=O` [PMX53, Ac-Phe-[Orn-Pro-dCha-Trp-Arg]] gave an AUC(0-inf) (in vivo) of 3830 ng·h/mL, an AUC(0-t) (in vivo) of 3410 ng·h/mL and a clearance (in vivo) of 0.18 mL/min. For the same molecule, the Cmax (in vivo; Cmax) was 11900 ng/mL, the Vd (in vivo; Vss_obs) was 0.00328 L and the Vd (in vivo; Vz_obs) was 0.00826 L.
For `N=C(N)NCCC[C@@H]1NC(=O)[C@H](Cc2c[nH]c3ccccc23)NC(=O)[C@@H](CC2CCCCC2)NC(=O)[C@@H]2CCCN2C(=O)[C@@H](NC(=O)CCc2ccccc2)CCCNC1=O` [PMX205, hydrocinnamate-[Orn-Pro-dCha-Trp-Arg]] (Hydrocinnamoyl-[Orn]P[dCha]WR; lactam 1-C), the “stability in intestinal homogenates (unchanged form)” value ([1]; mouse intestinal homogenates) was “greater than 35%”, the “stability in intestinal washing (unchanged form)” value ([1]; mouse intestinal washing) was “more than 85%” and the “stability in serum (percentage of concentration detected vs t = 0 min)” value [2] was 91.4 ± 1.4%. For the same molecule, the “AUC 0-inf_obs” value [3, 6] was 12.18 µg·min/g, the Cl_obs [3, 6] was 2.46 g/min and the Vss_obs [3, 6] was 553.84 g. The Vz_obs [3, 6] was 572.84 g, the “AUC(0-t)” value ([3]; brain, t = 90 min, single i.v. 1 mg/kg, mice) was 4.18 µg·min/g and the Cmax [3, 7] was 108 ng/g. The MRT inf [3, 7] was 3.75 h, the half-life ([3]; male, C57BL/6 J, mouse, brain, iv, 1 mg/kg, t1/2, brain, single i.v. 1 mg/kg, mice) was 161 min and the AUC(0-inf) [3, 8] was 5810 ng·h/mL. For the same molecule, the AUC(0-t) [3, 8] was 5800 ng·h/mL, the clearance [3, 8] was 0.086 mL/min and the Cmax [3, 9] was 29000 ng/mL. For the same molecule, the MRT inf [3, 9] was 0.15 h, the Vd ([3]; male, C57BL/6 J, mouse, plasma, iv, 1 mg/kg, Vss_obs, plasma, single i.v. 1 mg/kg, mice) was 0.00079 L and the Vd ([3]; male, C57BL/6 J, mouse, plasma, iv, 1 mg/kg, Vz_obs, single i.v. 1 mg/kg, mice) was 0.00132 L. For the same molecule, the half-life ([3]; male, C57BL/6 J, mouse, plasma, iv, 1 mg/kg, t1/2, plasma, single i.v. 1 mg/kg, mice) was 10.2 min, the Cmax [3, 10] was 213 ng/g and the MRT inf [3, 10] was 2.49 h. The half-life ([3]; male, C57BL/6 J, mouse, spinal cord, iv, 1 mg/kg, t1/2, spinal cord, single i.v. 1 mg/kg, mice) was 107 min, the “AUC 0-inf_obs” value [3, 11] was 17.42 µg·min/g and the Cl_obs [3, 11] was 1.722 g/min. For the same molecule, the Vss_obs [3, 11] was 257.98 g, the Vz_obs [3, 11] was 265.65 g and the “AUC(0-t)” value ([3]; spinal cord, t = 90 min, single i.v. 1 mg/kg, mice) was 7.95 µg·min/g. The “stability in plasma (percentage of concentration detected vs t = 0 min)” value [4] was 91.4 ± 3.1%, the “stability in gastric homogenates (unchanged form, % of t = 0 min)” value ([5]; mouse gastric homogenates) was 6.7 ± 4.2% and the “stability in gastric lavage (unchanged form, % of t = 0 min)” value ([5]; mouse gastric lavage fluid) was < 25% and 23.3 ± 1.7%.

Reference: article PMC5970165, “Development and validation of a LC-MS/MS assay for pharmacokinetic studies of complement C5a receptor antagonists PMX53 and PMX205 in mice” (Scientific Reports, 2018)
